# Values quoted from earlier work, collected in patent US20240299268A1, “A COMPOSITION FOR CARING FOR KERATIN MATERIALS” (L'OREAL, priority 2021, published 2024).
# Read-outs that look alike come from different tables or passages of the source.
structure (smiles),measurement,setting,value
"COc1cc(/C=C/C(=O)O)ccc1O [Ferulic acid, 4-Hydroxy-3-methoxycinnamic acid]","time until decarboxylation (loss in stability, unpleasant odor) when contacting with water",content of ferulic acid no less than 1 wt. %,30 days
same,"time until decarboxylation (loss in stability, unpleasant odor) when contacting with water",content of ferulic acid no less than 1.5 wt. %,15 days
same,"time until decarboxylation (loss in stability, unpleasant odor) when contacting with water",content of ferulic acid no less than 1.9 wt. %,7 days
